Reference: ChEMBL document CHEMBL3885861, “Open TG-GATES”

Species: Rattus norvegicus
Assay: Open TG-GATES - Regimen: Single
Format: toxicity, organism-based, Sprague-Dawley
Parameters: regimen Single, gender Male, age 6 weeks
Settings: in vivo, po, 30 mg/kg, route gavage, dose level High; for APTT / Bas / Eos / Fbg / Hb / Ht / Lym / MCH / MCHC / MCV / Mono / Neu / PT / Plat / RBC / Ret / WBC: tissue Blood; for KIDNEY_L / KIDNEY_R / KIDNEY_TOTAL: tissue Kidney; for LIVER: tissue Liver; for A/G / ALP / ALT / AST / BUN / CRE / Ca / Cl / DBIL / GLC / IP / K / LDH / Na / PL / RALB / TBIL / TC / TG / TP / gamma-GTP: tissue Plasma

In the case of `Nc1c2c(nc3ccccc13)CCCC2` [TACRINE], the TERMINAL_BW (3 h) is reported as 205 g, the APTT (3 h) is reported as 21.4 s and the Bas (3 h) is reported as 0%. It also gave an Eos (3 h) of 0.6%, a Fbg (3 h) of 313.8 mg/dL and a Hb (3 h) of 13.4 g/dL. For the same compound, the Ht (3 h) was 39.4%, the Lym (3 h) was 71% and the MCH (3 h) was 21.4 pg. It also gave an MCHC (3 h) of 34.1%, an MCV (3 h) of 62.7 fL and a Mono (3 h) of 2.6%. The Neu (3 h) was 25%, the PT (3 h) was 16.4 s and the Plat (3 h) was 124.7 x10_4/uL. The RBC (3 h) was 628.2 x10_4/ul, the Ret (3 h) was 8.7% and the WBC (3 h) was 55.6 x10_2/uL. For the same compound, the KIDNEY_L (3 h) was 0.9 g, the KIDNEY_R (3 h) was 0.9 g and the KIDNEY_TOTAL (3 h) was 1.9 g. For the same compound, the LIVER (3 h) was 9 g, the A/G (3 h) was 1.3 and the ALP (3 h) was 1523.2 IU/L. It also gave an ALT (3 h) of 49.8 IU/L, an AST (3 h) of 152.2 IU/L and a BUN (3 h) of 12.6 mg/dL. The CRE (3 h) was 0.2 mg/dL, the Ca (3 h) was 10.4 mg/dL and the Cl (3 h) was 103.8 meq/L. It also gave a DBIL (3 h) of 0 mg/dL, a GLC (3 h) of 269.6 mg/dL and an IP (3 h) of 9.9 mg/dL. For the same compound, the K (3 h) was 3.6 meq/L, the LDH (3 h) was 369.4 IU/L and the Na (3 h) was 139.2 meq/L. The PL (3 h) was 142.6 mg/dL, the RALB (3 h) was 3.2 g/dL and the TBIL (3 h) was 0.022 mg/dL. It also gave a TC (3 h) of 78 mg/dL, a TG (3 h) of 69.8 mg/dL and a TP (3 h) of 5.7 g/dL. It also gave a gamma-GTP (3 h) of 1.2 IU/L, a TERMINAL_BW (6 h) of 199.4 g and an APTT (6 h) of 20.8 s. For the same compound, the Bas (6 h) was 0%, the Eos (6 h) was 0.4% and the Fbg (6 h) was 327.2 mg/dL. It also gave a Hb (6 h) of 14 g/dL, a Ht (6 h) of 40.4% and a Lym (6 h) of 67%. The MCH (6 h) was 21.1 pg, the MCHC (6 h) was 34.6% and the MCV (6 h) was 61 fL. For the same compound, the Mono (6 h) was 3%, the Neu (6 h) was 29% and the PT (6 h) was 15.7 s. The Plat (6 h) was 124.5 x10_4/uL, the RBC (6 h) was 662.6 x10_4/ul and the Ret (6 h) was 7.7%. It also gave a WBC (6 h) of 64.5 x10_2/uL, a KIDNEY_L (6 h) of 0.9 g and a KIDNEY_R (6 h) of 0.9 g. The KIDNEY_TOTAL (6 h) was 1.8 g, the LIVER (6 h) was 8.9 g and the A/G (6 h) was 1.2. The ALP (6 h) was 1476.6 IU/L, the ALT (6 h) was 51.8 IU/L and the AST (6 h) was 199.8 IU/L. The BUN (6 h) was 13.4 mg/dL, the CRE (6 h) was 0.2 mg/dL and the Ca (6 h) was 10.6 mg/dL. It also gave a Cl (6 h) of 106.4 meq/L, a DBIL (6 h) of 0 mg/dL and a GLC (6 h) of 221.4 mg/dL. The IP (6 h) was 9.3 mg/dL, the K (6 h) was 3.9 meq/L and the LDH (6 h) was 347.2 IU/L. The Na (6 h) was 142 meq/L, the PL (6 h) was 146.4 mg/dL and the RALB (6 h) was 3.3 g/dL. It also gave a TBIL (6 h) of 0.02 mg/dL, a TC (6 h) of 81.6 mg/dL and a TG (6 h) of 45.4 mg/dL. For the same compound, the TP (6 h) was 6 g/dL, the gamma-GTP (6 h) was 1 IU/L and the TERMINAL_BW (9 h) was 202.2 g. For the same compound, the APTT (9 h) was 21 s, the Bas (9 h) was 0% and the Eos (9 h) was 0.4%. It also gave a Fbg (9 h) of 339.6 mg/dL, a Hb (9 h) of 13.4 g/dL and a Ht (9 h) of 38.9%. For the same compound, the Lym (9 h) was 53%, the MCH (9 h) was 21 pg and the MCHC (9 h) was 34.3%. For the same compound, the MCV (9 h) was 61.3 fL, the Mono (9 h) was 3% and the Neu (9 h) was 43%. For the same compound, the PT (9 h) was 15.6 s, the Plat (9 h) was 128.9 x10_4/uL and the RBC (9 h) was 634.8 x10_4/ul. The Ret (9 h) was 8.3%, the WBC (9 h) was 78.6 x10_2/uL and the KIDNEY_L (9 h) was 0.9 g. The KIDNEY_R (9 h) was 0.9 g, the KIDNEY_TOTAL (9 h) was 1.8 g and the LIVER (9 h) was 8.4 g. For the same compound, the A/G (9 h) was 1.3, the ALP (9 h) was 1511.6 IU/L and the ALT (9 h) was 64.4 IU/L. It also gave an AST (9 h) of 283 IU/L, a BUN (9 h) of 11.6 mg/dL and a CRE (9 h) of 0.2 mg/dL. For the same compound, the Ca (9 h) was 10.7 mg/dL, the Cl (9 h) was 106.2 meq/L and the DBIL (9 h) was 0.004 mg/dL. The GLC (9 h) was 222.6 mg/dL, the IP (9 h) was 9 mg/dL and the K (9 h) was 3.8 meq/L. For the same compound, the LDH (9 h) was 264.6 IU/L, the Na (9 h) was 141.4 meq/L and the PL (9 h) was 160.2 mg/dL. It also gave an RALB (9 h) of 3.3 g/dL, a TBIL (9 h) of 0.012 mg/dL and a TC (9 h) of 84 mg/dL. For the same compound, the TG (9 h) was 42.2 mg/dL, the TP (9 h) was 5.9 g/dL and the gamma-GTP (9 h) was 1 IU/L. The TERMINAL_BW (24 h) was 192.1 g, the APTT (24 h) was 20.8 s and the Bas (24 h) was 0%. The Eos (24 h) was 1%, the Fbg (24 h) was 351.6 mg/dL and the Hb (24 h) was 14.3 g/dL. For the same compound, the Ht (24 h) was 40.9%, the Lym (24 h) was 84.4% and the MCH (24 h) was 21.3 pg. The MCHC (24 h) was 34.8%, the MCV (24 h) was 61.2 fL and the Mono (24 h) was 2.2%. The Neu (24 h) was 12.4%, the PT (24 h) was 16.1 s and the Plat (24 h) was 130.3 x10_4/uL. For the same compound, the RBC (24 h) was 668.8 x10_4/ul, the Ret (24 h) was 6.7% and the WBC (24 h) was 68.9 x10_2/uL. For the same compound, the KIDNEY_L (24 h) was 0.9 g, the KIDNEY_R (24 h) was 0.9 g and the KIDNEY_TOTAL (24 h) was 1.8 g. For the same compound, the LIVER (24 h) was 7.7 g, the A/G (24 h) was 1.3 and the ALP (24 h) was 1513.8 IU/L. The ALT (24 h) was 44.4 IU/L, the AST (24 h) was 121.6 IU/L and the BUN (24 h) was 15 mg/dL. The CRE (24 h) was 0.2 mg/dL, the Ca (24 h) was 10.8 mg/dL and the Cl (24 h) was 107.8 meq/L. For the same compound, the DBIL (24 h) was 0.008 mg/dL, the GLC (24 h) was 187.6 mg/dL and the IP (24 h) was 8.8 mg/dL. The K (24 h) was 4.2 meq/L, the LDH (24 h) was 259.6 IU/L and the Na (24 h) was 142.2 meq/L. For the same compound, the PL (24 h) was 140.4 mg/dL, the RALB (24 h) was 3.2 g/dL and the TBIL (24 h) was 0.042 mg/dL. The TC (24 h) was 88.6 mg/dL, the TG (24 h) was 31.6 mg/dL and the TP (24 h) was 5.8 g/dL. The gamma-GTP (24 h) was 1 IU/L.
